In patent US7786083B2, “Metastin derivatives and use thereof” (Takeda Pharmaceutical Company Limited, priority 2006, dated 2010):
*1 amine or outer side, *2 acyl side, *3 side chain or, on linkers, in order; H or OH if unused. Where a SMILES comes first, the peptide text is derived from it. [ ]: non-standard residue; d: D form. X4 = O=C(CCC(=O)[*:2])[C@H](Cc1ccccc1)N[*:1]; X6 = O=C(COC[C@H](Cc1ccccc1)N[*:1])[*:2]; X9 = O=C(CCC[C@H](Cc1ccccc1)N[*:1])[*:2]; Arg(Me) = CNC(=N)NCCC[C@H](N)C(=O)O; Hyp = O=C(O)[C@@H]1C[C@@H](O)CN1; 2Pal = N[C@@H](Cc1ccccn1)C(=O)O; 3Pal = N[C@@H](Cc1cccnc1)C(=O)O; 4Pal = N[C@@H](Cc1ccncc1)C(=O)O; Cha = N[C@@H](CC1CCCCC1)C(=O)O; Abu = CC[C@H](N)C(=O)O; Dap = NC[C@H](N)C(=O)O; Aib = CC(C)(N)C(=O)O

Test system: metastin receptors
Assay: Measurement of agonist activity by assaying changes in intracellular calcium ion level (FLIPR, Fluo-4 NW)
Format: cell-based, human
Settings: specific activity of the EC50 of a test compound based on the EC50 of Metastin (45-54), metastin receptor expression CHO cells
Description: 1) Preparation of Human Metastin and Rat Metastin Stable Expression Cell Lines
Human metastin and rat metastin stable expression cell lines were obtained by transfecting the expression plasmid for animal cells into CHO/dhfr^− cells using CellPhect Transfection Kit (manufactured by GE Healthcare). First, 240 μL of Buffer A (attached to CellPhect Transfection Kit) was added to 9.6 μg of plasmid DNA dissolved in 240 μL of distilled water followed by stirring. After the mixture was settled for 10 minutes, 480 μL of Buffer B (attached to CellPhect Transfection Kit) was added to the mixture, which was vigorously stirred to form liposomes containing the DNA. Then, 4×10^5 CHO/dhfr^− cells (obtained from ATCC) were inoculated on a 60 mm Petri dish. After culturing the cells in Ham's F-12 medium (manufactured by Nissui Seiyaku Co., Ltd.) supplemented with 10% fetal bovine serum (manufactured by BIO […], Inc.) at 37° C. for 2 days in 5% carbon dioxide gas, […] of the liposomes were dropwise added to the cells on the Petri dish. After culturing the cells in a CO2 incubator (5% CO2, 37° C.) for 6 hours, the cells were washed twice with serum-free Ham's F-12 medium and 3 mL of 15% glycerol was added to the cells on the Petri dish followed by treatment for 2 minutes. The cells were again washed twice with serum-free Ham's F-12 medium followed by incubation in Ham's F-12 medium supplemented with 10% fetal bovine serum in a CO2 incubator (5% CO2, 37° C.) for 15 hours. The cells were dispersed by trypsin treatment to recover from the Petri dish. The recovered cells were inoculated on a 6-well plate in 1.25×10^4 cells each/well and incubation was initiated in a CO2 incubator (5% CO2, 37° C.) in Dulbecco's modified Eagle medium (DMEM, manufactured by Nissui Seiyaku) containing 10% dialyzed fetal bovine serum (manufactured by JRH BIOSCIENCES, Inc.). The plasmid-transfected CHO transformants grew in the medium but the non-transfected cells gradually died, accordingly the medium was exchanged on Days 1 and 2 after the initiation of incubation to remove the dead cells. Approximately 20 colonies of the CHO transformants that kept growing on Days 8 to 10 after the incubation were isolated. From the cells in these colonies, cells showing high reactivity with the ligand peptide metastin (hereinafter merely referred to as h175 KB19 and h175 KB29 strains) were selected to provide for the following experiment.
Human metastin expression CHO cell line (h175 KB19 strain is described in a separate section) and rat metastin expression CHO cell line (h175 KB29 strain is described in a separate section) were seeded in a 96-well plate (type 3904, manufactured by Corning) at 3×10^4 cells/well, followed by incubation in a CO2 incubator (5% CO2, 37° C.) for 24 hours. For the medium, MEMα medium (nucleic acid-free, manufactured by Nikken Bio Medical Laboratory) supplemented with dialyzed 10% fetal bovine serum (manufactured by Thermo, MultiSer) was used.
3) Loading with Fluo-4 NW in Cells
As an assay buffer, 1× Hanks' balanced salt solution (HBSS, manufactured by GIBCO) supplemented with 0.1% BSA, 20 mM HEPES (pH 7.4, manufactured by GIBCO) and 1 mM Probenecid (manufactured by Molecular Probes) was prepared. The medium in the wells of the cell-seeded plate was removed and 100 μL each of the assay buffer (kept warm at 37° C.) was added to each well. After 10 mL of the assay buffer (the volume for assaying two plates) was charged in one Fluo-4NW dye mix (Component A, Fluo-4 NW calcium assay kit (starter pack), manufactured by Molecular Probes) bottle, the mixture was gently stirred to prepare the Fluo-4 NW loading solution. This loading solution was charged in each well by 50 μl each and reacted in a CO2 incubator (5% CO2, 37° C.) for 30 minutes for loading with Fluo-4 NW into the cells. Subsequently, the cells were settled at room temperature (25° C.) for 15 minutes and then used for assay.
4) Measurement of Agonist Activity […]

Row | Compound | Specific Activity
1 | CNC(=N)NCCC[C@H](NC(=O)[C@H](CC(C)C)NC(=O)CNC(=O)[C@H](Cc1ccccc1)NC(=O)[C@@H](NC(=O)[C@H](CC(N)=O)NC(=O)[C@@H]1C[C@@H](O)CN1C(=O)[C@@H](Cc1ccc(O)cc1)NC(C)=O)[C@@H](C)O)C(=O)N[C@@H](Cc1c[nH]c2ccccc12)C(N)=O [Compound No. 796, des(1)-Ac-[D-Tyr2,Hyp3,Thr5,Arg(Me)9,Trp10]MS10] (Ac-[dY][Hyp]NTFGL[Arg(Me)]W-NH2) | 1.2
2 | CNC(=N)NCCC[C@H](NC(=O)[C@H](CC(C)C)NC(=O)C(C)(C)NC(=O)[C@H](Cc1ccccc1)NC(=O)[C@@H](NC(=O)[C@H](CC(N)=O)NC(=O)[C@@H]1C[C@@H](O)CN1C(=O)[C@@H](Cc1ccc(O)cc1)NC(C)=O)[C@@H](C)O)C(=O)N[C@@H](Cc1c[nH]c2ccccc12)C(N)=O [Compound No. 811, des(1)-Ac-[D-Tyr2,Hyp3,Thr5,Aib7,Arg(Me)9,Trp10]MS10] (Ac-[dY][Hyp]NTF[Aib]L[Arg(Me)]W-NH2) | 1.5
3 | CNC(=N)NCCC[C@H](NC(=O)[C@H](CC(C)C)NC(=O)COC[C@H](Cc1ccccc1)NC(=O)[C@@H](NC(=O)[C@H](CC(N)=O)NC(=O)[C@@H]1C[C@@H](O)CN1C(=O)[C@@H](Cc1ccc(O)cc1)NC(C)=O)[C@@H](C)O)C(=O)N[C@@H](Cc1c[nH]c2ccccc12)C(N)=O [Compound No. 834, des(1)-Ac-[D-Tyr2,Hyp3,Thr5,Phe6Ψ(CH2O)Gly7,Arg(Me)9,Trp10]MS10] (Ac-[dY][Hyp]NT[X6]L[Arg(Me)]W-NH2) | 0.5
4 | CNC(=N)NCCC[C@H](NC(=O)[C@H](CC(C)C)NC(=O)CNC(=O)[C@H](Cc1ccccn1)NC(=O)[C@@H](NC(=O)[C@H](CC(N)=O)NC(=O)[C@@H]1C[C@@H](O)CN1C(=O)[C@@H](Cc1ccc(O)cc1)NC(C)=O)[C@@H](C)O)C(=O)N[C@@H](Cc1c[nH]c2ccccc12)C(N)=O [Compound No. 839, des(1)-Ac-[D-Tyr2,Hyp3,Thr5,Pya(2)6,Arg(Me)9,Trp10]MS10] (Ac-[dY][Hyp]NT[2Pal]GL[Arg(Me)]W-NH2) | 1.2
5 | CNC(=N)NCCC[C@H](NC(=O)[C@H](CC(C)C)NC(=O)CCC[C@H](Cc1ccccc1)NC(=O)[C@@H](NC(=O)[C@H](CC(N)=O)NC(=O)[C@@H]1C[C@@H](O)CN1C(=O)[C@@H](Cc1ccc(O)cc1)NC(C)=O)[C@@H](C)O)C(=O)N[C@@H](Cc1c[nH]c2ccccc12)C(N)=O [Compound No. 850, des(1)-Ac-[D-Tyr2,Hyp3,Thr5,Phe6Ψ(CH2CH2)Gly7,Arg(Me)9,Trp10]MS10] (Ac-[dY][Hyp]NT[X9]L[Arg(Me)]W-NH2) | 1.3
6 | CNC(=N)NCCC[C@H](NC(=O)[C@H](CC(C)C)NC(=O)CCC(=O)[C@H](Cc1ccccc1)NC(=O)[C@@H](NC(=O)[C@H](CC(N)=O)NC(=O)[C@@H]1C[C@@H](O)CN1C(=O)[C@@H](Cc1ccc(O)cc1)NC(C)=O)[C@@H](C)O)C(=O)N[C@@H](Cc1c[nH]c2ccccc12)C(N)=O [Compound No. 851, des(1)-Ac-[D-Tyr2,Hyp3,Thr5,Phe6Ψ(COCH2)Gly7,Arg(Me)9,Trp10]MS10] (Ac-[dY][Hyp]NT[X4]L[Arg(Me)]W-NH2) | 1.1

Now from value to compound:

Row | Specific Activity | Compound
7 | 1.0 | CC[C@H](NC(=O)[C@H](Cc1ccccc1)NC(=O)[C@@H](NC(=O)[C@H](CC(N)=O)NC(=O)[C@@H]1C[C@@H](O)CN1C(=O)[C@@H](Cc1ccc(O)cc1)NC(C)=O)[C@@H](C)O)C(=O)N[C@@H](CC(C)C)C(=O)N[C@@H](CCCNC(=N)NC)C(=O)N[C@@H](Cc1c[nH]c2ccccc12)C(N)=O [Compound No. 818, des(1)-Ac-[D-Tyr2,Hyp3,Thr5,Abu7,Arg(Me)9,Trp10]MS10] (Ac-[dY][Hyp]NTF[Abu]L[Arg(Me)]W-NH2)
8 | 0.3 | CNC(=N)NCCC[C@H](NC(=O)[C@H](CC(C)C)NC(=O)CNC(=O)[C@H](CC1CCCCC1)NC(=O)[C@@H](NC(=O)[C@H](CC(N)=O)NC(=O)[C@@H]1C[C@@H](O)CN1C(=O)[C@@H](Cc1ccc(O)cc1)NC(C)=O)[C@@H](C)O)C(=O)N[C@@H](Cc1c[nH]c2ccccc12)C(N)=O [Compound No. 822, des(1)-Ac-[D-Tyr2,Hyp3,Thr5,Cha6,Arg(Me)9,Trp10]MS10] (Ac-[dY][Hyp]NT[Cha]GL[Arg(Me)]W-NH2)
9 | 0.5 | CNC(=N)NCCC[C@H](NC(=O)[C@H](CC(C)C)NC(=O)[C@H](C)NC(=O)[C@H](CC1CCCCC1)NC(=O)[C@@H](NC(=O)[C@H](CC(N)=O)NC(=O)[C@@H]1C[C@@H](O)CN1C(=O)[C@@H](Cc1ccc(O)cc1)NC(C)=O)[C@@H](C)O)C(=O)N[C@@H](Cc1c[nH]c2ccccc12)C(N)=O [Compound No. 823, des(1)-Ac-[D-Tyr2,Hyp3,Thr5,Cha6,Ala7,Arg(Me)9,Trp10]MS10] (Ac-[dY][Hyp]NT[Cha]AL[Arg(Me)]W-NH2)
10 | 1.3 | CNC(=N)NCCC[C@H](NC(=O)[C@H](CC(C)C)NC(=O)[C@H](CN)NC(=O)[C@H](Cc1ccccc1)NC(=O)[C@@H](NC(=O)[C@H](CC(N)=O)NC(=O)[C@@H]1C[C@@H](O)CN1C(=O)[C@@H](Cc1ccc(O)cc1)NC(C)=O)[C@@H](C)O)C(=O)N[C@@H](Cc1c[nH]c2ccccc12)C(N)=O [Compound No. 827, des(1)-Ac-[D-Tyr2,Hyp3,Thr5,Dap7,Arg(Me)9,Trp10]MS10] (Ac-[dY][Hyp]NTF[Dap]L[Arg(Me)]W-NH2)
11 | 1.2 | CNC(=N)NCCC[C@H](NC(=O)[C@H](CC(C)C)NC(=O)[C@H](COC)NC(=O)[C@H](Cc1ccccc1)NC(=O)[C@@H](NC(=O)[C@H](CC(N)=O)NC(=O)[C@@H]1C[C@@H](O)CN1C(=O)[C@@H](Cc1ccc(O)cc1)NC(C)=O)[C@@H](C)O)C(=O)N[C@@H](Cc1c[nH]c2ccccc12)C(N)=O [Compound No. 828, des(1)-Ac-[D-Tyr2,Hyp3,Thr5,Ser(Me)7,Arg(Me)9,Trp10]MS10] (Ac-[dY][Hyp]NTFS(Me)L[Arg(Me)]W-NH2)
12 | 1.7 | CNC(=N)NCCC[C@H](NC(=O)[C@H](CC(C)C)NC(=O)[C@@H](NC(=O)[C@H](Cc1ccccc1)NC(=O)[C@@H](NC(=O)[C@H](CC(N)=O)NC(=O)[C@@H]1C[C@@H](O)CN1C(=O)[C@@H](Cc1ccc(O)cc1)NC(C)=O)[C@@H](C)O)C(C)C)C(=O)N[C@@H](Cc1c[nH]c2ccccc12)C(N)=O [Compound No. 847, des(1)-Ac-[D-Tyr2,Hyp3,Thr5,Val7,Arg(Me)9,Trp10]MS10] (Ac-[dY][Hyp]NTFVL[Arg(Me)]W-NH2)
13 | 0.9 | CNC(=N)NCCC[C@H](NC(=O)[C@H](CC(C)C)NC(=O)CNC(=O)[C@H](Cc1cccnc1)NC(=O)[C@@H](NC(=O)[C@H](CC(N)=O)NC(=O)[C@@H]1C[C@@H](O)CN1C(=O)[C@@H](Cc1ccc(O)cc1)NC(C)=O)[C@@H](C)O)C(=O)N[C@@H](Cc1c[nH]c2ccccc12)C(N)=O [Compound No. 848, des(1)-Ac-[D-Tyr2,Hyp3,Thr5,Pya(3)6,Arg(Me)9,Trp10]MS10] (Ac-[dY][Hyp]NT[3Pal]GL[Arg(Me)]W-NH2)
14 | 0.9 | CNC(=N)NCCC[C@H](NC(=O)[C@H](CC(C)C)NC(=O)CNC(=O)[C@H](Cc1ccncc1)NC(=O)[C@@H](NC(=O)[C@H](CC(N)=O)NC(=O)[C@@H]1C[C@@H](O)CN1C(=O)[C@@H](Cc1ccc(O)cc1)NC(C)=O)[C@@H](C)O)C(=O)N[C@@H](Cc1c[nH]c2ccccc12)C(N)=O [Compound No. 849, des(1)-Ac-[D-Tyr2,Hyp3,Thr5,Pya(4)6,Arg(Me)9,Trp10]MS10] (Ac-[dY][Hyp]NT[4Pal]GL[Arg(Me)]W-NH2)
